Where two headings read alike, the source gives them in different places.
Columns and labels:
[1] = target: T1, mutant HIV reverse transcriptase (Y181C mutation) (Human immunodeficiency virus type 1 group M subtype B, UniProt P04585, Y768C); test: Analogous RT inhibition assay, Y181C mutant; format: biochemical; details: reverse transcriptase with Y181C mutation; tested up to 20 micromolar; read-out: IC50, Y181C mutant assay
T1 construct: mutations that occur in the reverse transcriptase segment of the pol gene; made in house
Protocol: (§1) 100 μL reaction mixtures were initiated with a combination of primer-template substrate (10 nM final concentration) and dNTPs (0.6 μM dNTPs, 0.75 μM [^3H]-dGTP). The heterodimeric nucleic acid substrate was generated by annealing the DNA primer pD500 (described in Shaw-Reid et al., J. Biol. Chem., 278: 2777-2780; obtained from Integrated DNA Technologies) to t500, a 500 nucleotide RNA template created by in vitro transcription (see Shaw-Reid et al., J. Biol. Chem., 278: 2777-2780). After 1 hour incubation at 37° C., reactions were quenched by 10 μl, streptavidin scintillation proximity assay beads (10 mg/mL, from Amersham Biosciences) in 0.5 M EDTA, pH 8. Microtiter plates were incubated an additional 10 minutes at 37° C. prior to quantification via Topcount (Packard).
(§2) Analogous assays were conducted substituting mutant HIV strains to determine the […] inhibition of compounds of the present invention against mutant HIV reverse transcriptase. In one strain the reverse transcriptase has the Y181C mutation and in the other strain the reverse transcriptase has the K103N mutation. The mutations were generated with the […] site-directed mutagenesis kit (Stratagene). […] The compounds set forth in the other Examples were not tested in the Y181C assay. […] The compounds set forth in the other Examples were not tested in the K103N assay.

[2] = target: T2, mutant HIV reverse transcriptase (K103N mutation) (Human immunodeficiency virus type 1 group M subtype B, UniProt P04585, K690N); test: Analogous RT inhibition assay, K103N mutant; format: biochemical
T2 construct: mutations that occur in the reverse transcriptase segment of the pol gene; made in house
Protocol: as §1, §2

[3] = test system: acute HIV infection of T-lymphoid cells; test: Assay for inhibition of HIV replication (spread assay); format: cell-based; details: read-out: IC95, spread assay
Protocol: An assay for the inhibition of acute HIV infection of T-lymphoid cells (alternatively referred to herein as the “spread assay”) was conducted in accordance with Vacca, J. P. et al., Proc. Natl. Acad. Sci. USA 1994, 91: 4096. […] The compounds set forth in the other Examples were not tested in the spread assay.

[4] = reverse transcriptase with K103N mutation, tested up to 20 micromolar, read-out: IC50, K103N mutant assay
[5] = Human immunodeficiency virus 1, inhibition of acute HIV infection of T-lymphoid cells

SMILES	IC50 [1]	IC50 [2, 4]	IC95 [3, 5]	IC50 [2]	IC95 ([3]; Human immunodeficiency virus 1, T-lymphoid)
O=C(Nc1ccccn1)Nc1[nH]c2ccc(Br)cc2c1S(=O)(=O)N1CCCC1 [Example 75, N-[5-bromo-3-(pyrrolidin-1-ylsulfonyl)-1H-indol-2-yl]-N′-pyridin-2-ylurea]	1 to 20 µM	< 1000 nM	< 1 µM	–	–
O=C(Nc1[nH]c2ccc(Br)cc2c1S(=O)(=O)N1CCCC1)Nc1c(F)cccc1F [Example 77, N-[5-bromo-3-(pyrrolidin-1-ylsulfonyl)-1H-indol-2-yl]-N′-(2,6-difluorophenyl)urea]	1 to 20 µM	< 1000 nM	< 1 µM	–	–
O=C(NCc1ccncc1)Nc1[nH]c2ccc(Br)cc2c1S(=O)(=O)N1CCCC1 [Example 86, N-[5-bromo-3-(pyrrolidin-1-ylsulfonyl)-1H-indol-2-yl]-N′-(pyridin-4-ylmethyl)urea]	> 20 µM	< 1000 nM	< 1 µM	–	–
NC(=O)Nc1[nH]c2ccc(Br)cc2c1S(=O)(=O)N1CCCC1 [Example 89, N-[5-bromo-3-(pyrrolidin-1-ylsulfonyl)-1H-indol-2-yl]urea]	> 20 µM	–	< 1 µM	< 1000 nM	–
O=C(NCCCc1ccccc1)Nc1[nH]c2ccc(Br)cc2c1S(=O)(=O)N1CCCC1 [Example 90, N-[5-bromo-3-(pyrrolidin-1-ylsulfonyl)-1H-indol-2-yl]-N′-(3-phenylpropyl)urea]	> 20 µM	–	–	< 1000 nM	1 to 10 µM

From patent US20100179122A1 (priority 2005, published 2010)
